# Target: MALT-1 (Isoform1) (Homo sapiens (Human), UniProt Q9UDY8)
# Test: Biochemical fluorescent assay of MALT-1 (Isoform1) enzyme inhibition
# Conditions: recombinant MALT-1 (Isoform1); for Percent Inhibition (@ 1 μM) / inhibition at 1 µM: compound at 1 μM; for IC50: 50 μM AC-LRSR-MAC substrate, 240 min; for inhibition at 1 µM: read-out: Percent Inhibition (@ 1 μM)
# Description: The potency of compounds to inhibit MALT-1 (Isoform1) enzyme was tested in a Fluorescent assay using recombinant MALT-1 (Isoform1, aa-840) generated in-house. The assay buffer was 50 mM HEPES (pH 7.5), 100 mM NaCl, 10 mM DTT, 1 mM EDTA, 0.9 M sodium citrate, 0.01% CHAPS. 1.5 nM of MALT-1 enzyme was incubated with various concentrations of test compounds ([…]) (1% DMSO) in the presence of buffer for 30 minutes at 30° C. The protease reaction was initiated by adding 50 μM of AC-LRSR-MAC (Peptide International, USA) substrate and incubated for 240 min. After 240 min incubation, fluorescence emission of the samples at 460 nm was measured at an excitation of 355 nm. The percent inhibition was calculated using the following formula: […]. IC50 values were determined by fitting the dose-response data to sigmoidal curve fitting equation using Graph pad prism software VS.
# Sequence of MALT-1 (Isoform1) (Q9UDY8 whole entry, canonical isoform): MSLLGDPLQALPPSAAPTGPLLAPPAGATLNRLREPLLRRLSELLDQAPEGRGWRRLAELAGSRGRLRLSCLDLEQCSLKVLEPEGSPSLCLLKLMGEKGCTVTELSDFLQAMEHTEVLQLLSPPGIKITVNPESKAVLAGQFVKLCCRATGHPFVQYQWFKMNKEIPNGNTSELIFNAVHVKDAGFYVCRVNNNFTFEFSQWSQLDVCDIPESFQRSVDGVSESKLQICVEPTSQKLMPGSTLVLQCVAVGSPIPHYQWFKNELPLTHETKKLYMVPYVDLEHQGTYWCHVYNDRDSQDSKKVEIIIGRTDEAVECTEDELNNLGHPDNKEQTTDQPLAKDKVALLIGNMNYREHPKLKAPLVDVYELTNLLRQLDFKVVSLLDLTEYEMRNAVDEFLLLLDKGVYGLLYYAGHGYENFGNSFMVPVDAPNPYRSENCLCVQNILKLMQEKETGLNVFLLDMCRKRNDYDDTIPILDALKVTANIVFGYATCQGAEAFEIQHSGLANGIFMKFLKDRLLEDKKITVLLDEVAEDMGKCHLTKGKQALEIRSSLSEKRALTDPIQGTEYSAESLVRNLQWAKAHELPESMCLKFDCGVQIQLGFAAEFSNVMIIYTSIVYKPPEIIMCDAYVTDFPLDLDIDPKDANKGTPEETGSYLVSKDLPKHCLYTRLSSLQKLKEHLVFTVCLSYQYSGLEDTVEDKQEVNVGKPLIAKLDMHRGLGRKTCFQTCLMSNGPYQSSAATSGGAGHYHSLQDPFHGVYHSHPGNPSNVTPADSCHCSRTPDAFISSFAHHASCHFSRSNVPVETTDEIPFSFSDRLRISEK
Structure (SMILES),Percent Inhibition (@ 1 μM),IC50,inhibition at 1 µM
"CCC(OC)c1c(NC(=O)Nc2cc(F)c3nc(C)nn3c2)cnc2cc(Cl)nn12 (single isomer, unassigned) [Example 33b, 1-(2-chloro-7-(1-methoxypropyl)pyrazolo[1,5-a]pyrimidin-6-yl)-3-(8-fluoro-2-methyl-[1,2,4]triazolo[1,5-a]pyridin-6-yl)urea]",96%,51 to 250 nM,–
Cc1nc2c(F)cc(NC(=O)Nc3cnc4cc(Cl)nn4c3C3CCCO3)cn2n1 (stereo not drawn) [Example 12],–,51 to 250 nM,81%
CO[C@@H](C)c1c(NC(=O)Nc2cc(F)c3nc(C)nn3c2)cnc2cc(F)nn12 [Example 24],–,51 to 250 nM,80%
"COC(c1c(NC(=O)Nc2cc(F)c3nc(C)nn3c2)cnc2cc(Cl)nn12)C(C)C (racemic) [Example 31, 1-(2-chloro-7-(1-methoxy-2-methylpropyl)pyrazolo[1,5-a]pyrimidin-6-yl)-3-(8-fluoro-2-methyl-[1,2,4]triazolo[1,5-a]pyridin-6-yl)urea]",–,< 50 nM,100%
CO[C@@H](C)c1c(NC(=O)Nc2cc(Cl)c3nc(C4CC4)nn3c2)cnc2cc(Cl)nn12 [Example 6],–,< 50 nM,97%
CO[C@@H](C)c1c(NC(=O)Nc2cc(F)c3nc(CO)nn3c2)cnc2cc(Cl)nn12 [Example 13],–,51 to 250 nM,84%
CO[C@@H](C)c1c(NC(=O)Nc2cc(F)c3nc(C)c(C)n3c2)cnc2cc(Cl)nn12 [Example 42],–,51 to 250 nM,79%
"COC(C)c1c(NC(=O)Nc2cc(Cl)c3ncnn3c2)cnc(C)c1Br (stereo not drawn) [Example 34b, 1-(5-bromo-4-(1-methoxyethyl)-6-methylpyridin-3-yl)-3-(8-chloro-[1,2,4]triazolo[1,5-a]pyridin-6-yl)urea]",–,–,33%
"CCC(OC)c1c(NC(=O)Nc2cc(F)c3nc(C)nn3c2)cnc2cc(Cl)nn12 (racemic) [Example 33, 1-(2-chloro-7-(1-methoxypropyl)pyrazolo[1,5-a]pyrimidin-6-yl)-3-(8-fluoro-2-methyl-[1,2,4]triazolo[1,5-a]pyridin-6-yl)urea]",–,< 50 nM,98%
CO[C@@H](C)c1c(NC(=O)Nc2cc(F)c3nc(C(=O)N4CCCC4)nn3c2)cnc2cc(Cl)nn12 [Example 48],–,51 to 250 nM,86%
CO[C@@H](C)c1c(NC(=O)Nc2cc(F)c3nc(C)cn3c2)cnc2cc(Cl)nn12 [Example 41],–,> 250 nM,69%
CO[C@@H](C)c1c(NC(=O)Nc2cc(F)c3ncnn3c2)cnc2cc(C(F)F)nn12 [Example 45],–,51 to 250 nM,78%
CO[C@@H](C)c1c(NC(=O)Nc2cc(C(F)(F)F)c3ncnn3c2)cnc2cc(Cl)nn12 [Example 4],–,51 to 250 nM,94%
Cc1nc2c(F)cc(NC(=O)Nc3cnc4cc(Cl)nn4c3C(C)C)cn2n1 [Example 16],–,< 50 nM,90%
CO[C@@H](C)[C@@H](OC)c1c(NC(=O)Nc2cc(F)c3nc(C)nn3c2)cnc2cc(Cl)nn12 [Example 21],–,> 250 nM,96%
"COC(C)c1c(NC(=O)Nc2cc(Cl)c3ncnn3c2)cnc(C)c1Br (single isomer, unassigned) [Example 34a, 1-(5-bromo-4-(1-methoxyethyl)-6-methylpyridin-3-yl)-3-(8-chloro-[1,2,4]triazolo[1,5-a]pyridin-6-yl)urea]",–,51 to 250 nM,79%
CO[C@@H](C)c1c(NC(=O)Nc2cc(C#N)c3ncnn3c2)cnc2cc(Cl)nn12 [Example 18],–,< 50 nM,98%
"CCC(OC)c1c(NC(=O)Nc2cc(F)c3nc(C)nn3c2)cnc2cc(Cl)nn12 (single isomer, unassigned) [Example 33a, 1-(2-chloro-7-(1-methoxypropyl)pyrazolo[1,5-a]pyrimidin-6-yl)-3-(8-fluoro-2-methyl-[1,2,4]triazolo[1,5-a]pyridin-6-yl)urea]",–,< 50 nM,99%
"COC(C)c1c(NC(=O)Nc2cc(Cl)c3ncnn3c2)cnc(C)c1Br (racemic) [Example 34, 1-(5-bromo-4-(1-methoxyethyl)-6-methylpyridin-3-yl)-3-(8-chloro-[1,2,4]triazolo[1,5-a]pyridin-6-yl)urea]",–,> 250 nM,71%
CO[C@@H](C)c1c(NC(=O)Nc2cc(F)c3nccn3c2)cnc2cc(Cl)nn12 [Example 43],–,51 to 250 nM,86%
"COC(c1c(NC(=O)Nc2cc(F)c3nc(C)nn3c2)cnc2cc(Cl)nn12)C1CC1 (single isomer, unassigned) [Example 32b, 1-(2-chloro-7-(cyclopropyl(methoxy)methyl)pyrazolo[1,5-a]pyrimidin-6-yl)-3-(8-fluoro-2-methyl-[1,2,4]triazolo[1,5-a]pyridin-6-yl)urea]",99%,< 50 nM,–
"COC(C)c1c(NC(=O)Nc2cc(F)c3nc(C)nn3c2)cnc2sc(C)nc12 (stereo not drawn) [Example 39, 1-(8-fluoro-2-methyl-[1,2,4]triazolo[1,5-a]pyridin-6-yl)-3-(7-(1-methoxyethyl)-2-methylthiazolo[5,4-b]pyridin-6-yl)urea]",–,> 250 nM,77%
Cc1nc2c(F)cc(NC(=O)Nc3cnc4cc(Cl)nn4c3C3CC3)cn2n1 [Example 15],–,51 to 250 nM,79%

# — patent publication US20250092066A1, “SUBSTITUTED BICYCLIC HETEROCYCLES AS MALT-1 INHIBITORS” (AURIGENE ONCOLOGY LIMITED, priority 2022, published 2025)
